Data reported in ChEMBL document CHEMBL1201862, “PubChem BioAssay data set” (2004).
The source made the active and inactive calls.

Assays:
[1] = viability loss in HEK293 kidney cells – cell-based, cherry-picks, set 5, cytotoxicity control, dose response (AID 1053117); assay type: functional
[2] = biological target: T1, Botulinum neurotoxin type A (Clostridium botulinum (strain Hall / ATCC 3502 / NCTC 13319 / Type A), UniProt P0DPI1); assay: High-throughput multiplex microsphere dose response for inhibitors of toxin protease, specifically Botulinum neurotoxin light chain A protease, compounds from Powder Set 01.; assay type: functional, Clostridium botulinum A str. ATCC 3502; details: read-out: EC50_MICROM
T1 sequence (P0DPI1 2-448 limits assumed): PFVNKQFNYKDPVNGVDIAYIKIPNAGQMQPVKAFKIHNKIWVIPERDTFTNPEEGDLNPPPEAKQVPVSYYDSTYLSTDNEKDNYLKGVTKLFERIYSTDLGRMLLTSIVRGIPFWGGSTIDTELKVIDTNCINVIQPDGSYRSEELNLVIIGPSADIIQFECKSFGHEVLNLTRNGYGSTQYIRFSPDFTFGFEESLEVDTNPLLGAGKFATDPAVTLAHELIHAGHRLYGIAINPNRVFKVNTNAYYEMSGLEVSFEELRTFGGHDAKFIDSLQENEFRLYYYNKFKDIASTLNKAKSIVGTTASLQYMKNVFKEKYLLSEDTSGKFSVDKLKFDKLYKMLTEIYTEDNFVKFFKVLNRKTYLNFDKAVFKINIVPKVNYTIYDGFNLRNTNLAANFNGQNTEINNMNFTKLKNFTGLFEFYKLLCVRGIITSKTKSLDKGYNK

[3] = biological target: T1, Botulinum neurotoxin type A; assay: Confirmatory FRET assay using full length substrates for Botulinum neurotoxin light chain A protease, with Powder Set01.; assay type: functional
Kallikrein-7 = Kallikrein-7 (Homo sapiens, UniProt P49862); assay: Fluorescence Intensity-based biochemical primary high throughput dose response assay to identify activators of kallikrein-7 (K7) zymogen.
Chain of Kallikrein-7 (P49862 whole entry): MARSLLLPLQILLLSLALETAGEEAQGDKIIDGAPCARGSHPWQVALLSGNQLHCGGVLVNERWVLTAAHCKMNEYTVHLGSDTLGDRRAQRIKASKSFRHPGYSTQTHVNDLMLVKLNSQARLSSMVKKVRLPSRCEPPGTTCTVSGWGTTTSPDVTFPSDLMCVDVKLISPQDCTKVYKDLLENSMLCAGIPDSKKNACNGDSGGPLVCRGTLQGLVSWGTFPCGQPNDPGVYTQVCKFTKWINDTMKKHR

Beta-lactamase [4] = biological target: Beta-lactamase (Salmonella choleraesuis (strain SC-B67), UniProt Q5J463); assay: Epi-absorbance-based counterscreen for selective VIM-2 inhibitors: dose response biochemical high throughput screening assay to identify inhibitors of TEM-1 serine-beta-lactamase.
Beta-lactamase [5] = biological target: T2, Beta-lactamase (Pseudomonas aeruginosa, UniProt Q79MP6); assay: inhibition of IMP-1 beta-lactamase activity – biochemical, epi-absorbance, selectivity assay for VIM-2 inhibitor project, dose response (AID 1920)
T2 sequence (Q79MP6 whole entry): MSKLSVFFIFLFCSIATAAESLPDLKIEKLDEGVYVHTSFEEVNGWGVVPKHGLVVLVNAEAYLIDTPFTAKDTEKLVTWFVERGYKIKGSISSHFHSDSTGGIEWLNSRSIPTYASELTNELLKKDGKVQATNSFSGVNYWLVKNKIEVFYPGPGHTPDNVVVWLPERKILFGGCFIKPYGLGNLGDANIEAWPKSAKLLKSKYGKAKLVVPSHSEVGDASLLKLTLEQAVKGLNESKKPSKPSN

[6] = biological target: DNA dC->dU-editing enzyme APOBEC-3G (Homo sapiens, UniProt Q9HC16); assay: Dose Response confirmation of small molecule APOBEC3G DNA Deaminase Inhibitors via a fluorescence-based single-stranded DNA deaminase assay. [Related pubchem assays (depositor defined):AID493012, AID493028]; assay type: functional
Beta-lactamase [7] = biological target: T2, Beta-lactamase; assay: […] counterscreen for selective VIM-2 inhibitors: dose response biochemical high throughput screening assay to identify inhibitors of IMP-1 metallo-beta-lactamase.
[8] = biological target: DNA dC->dU-editing enzyme APOBEC-3A (Homo sapiens, UniProt P31941); assay: A3A deaminase inhibition for selectivity – biochemical, dose response (AID 504722); assay type: functional
Chain of DNA dC->dU-editing enzyme APOBEC-3A (P31941 whole entry): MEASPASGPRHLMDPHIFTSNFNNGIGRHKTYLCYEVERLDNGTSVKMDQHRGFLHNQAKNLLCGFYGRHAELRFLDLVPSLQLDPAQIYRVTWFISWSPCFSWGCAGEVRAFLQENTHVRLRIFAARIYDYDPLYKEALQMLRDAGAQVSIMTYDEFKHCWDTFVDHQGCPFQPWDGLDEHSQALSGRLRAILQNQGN

[9] = reduced cellular PGC1a acetyl-lysine signal – cell-based, cherry-picked samples, dose response (AID 720514); assay type: functional;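 also: potency may reflect raised or lowered acetylation signal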
[10] = general mammalian cell viability loss – activator set, cherry-pick, cytotoxicity control for miR-122 modulator project, dose response (AID 720690); assay type: functional, cell-based;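 also: HEK293T human cells scored for general mammalian cytotoxicity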
[11] = activation of miR-122 Renilla sensor silencing – cell-based, Huh7 psiCHECK-miR122, Renilla luciferase, cherry-picked, dose response (AID 651956); assay type: functional;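 also: huh7 hepatoma cells stably carrying a psiCHECK-2 miR-122 sensor plasmid; renilla luciferase signal reporting endogenous miR-122 activity after 48 h compound exposure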
[12] = Late stage assay provider results from the probe development effort to identify selective inhibitors of heat shock protein 90 (HSP90): Absorbance-based cell proliferation assay in MCF7 cells.; assay type: functional
[13] = Late stage assay provider results from the probe development effort to identify selective inhibitors of heat shock protein 90 (HSP90): Absorbance-based cell proliferation assay in SKBR3 cells.; assay type: functional; details: SK-BR-3
[14] = MITF Orthogonal Assay: SK-MEL-5 CTG Assay Measured in Cell-Based System Using Plate Reader - 2084-02_Inhibitor_Dose_DryPowder_Activity_Set7.; assay type: functional
[15] = MITF: Counter assay: A375 proliferation Measured in Cell-Based System Using Plate Reader - 2084-03_Inhibitor_Dose_DryPowder_Activity_Set8.; assay type: functional; details: A-375
[16] = biological target: T3, Oxysterols receptor LXR-beta (Homo sapiens, UniProt P55055); assay type: functional, cell-based;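 also: agonist activity at LXR measured by a cell-based luminescence readout across a dose range, run as a counterscreen for daf-12 agonists; HEK293 cells with Gal4-LXR fusion and GAL4-driven luciferase reporter; potency for activation of Gal4-LXR reporter so compounds are agonists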
T3 sequence (P55055 whole entry): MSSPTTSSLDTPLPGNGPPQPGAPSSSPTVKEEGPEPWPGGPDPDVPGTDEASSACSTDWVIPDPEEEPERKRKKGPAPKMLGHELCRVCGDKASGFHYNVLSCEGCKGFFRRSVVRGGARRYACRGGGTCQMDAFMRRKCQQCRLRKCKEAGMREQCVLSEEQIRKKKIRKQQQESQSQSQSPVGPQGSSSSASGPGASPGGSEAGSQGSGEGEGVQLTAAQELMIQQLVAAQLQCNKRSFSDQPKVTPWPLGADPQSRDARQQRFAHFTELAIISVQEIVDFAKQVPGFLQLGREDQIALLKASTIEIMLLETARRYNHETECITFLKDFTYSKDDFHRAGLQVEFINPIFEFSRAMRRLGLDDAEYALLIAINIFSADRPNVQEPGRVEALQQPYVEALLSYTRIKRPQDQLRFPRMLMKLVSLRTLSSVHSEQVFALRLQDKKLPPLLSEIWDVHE

Beta-galactosidase = Beta-galactosidase (Escherichia coli, UniProt Q8VNN2); assay: Dose response counterscreen for EBI2 assay utilizing the enzyme, b-galactosidase.; assay type: functional
fMet-Leu-Phe receptor = fMet-Leu-Phe receptor (Homo sapiens, UniProt P21462); assay: formyl peptide receptor binders – dose response (AID 519); assay type: functional
Chain of fMet-Leu-Phe receptor (P21462 whole entry): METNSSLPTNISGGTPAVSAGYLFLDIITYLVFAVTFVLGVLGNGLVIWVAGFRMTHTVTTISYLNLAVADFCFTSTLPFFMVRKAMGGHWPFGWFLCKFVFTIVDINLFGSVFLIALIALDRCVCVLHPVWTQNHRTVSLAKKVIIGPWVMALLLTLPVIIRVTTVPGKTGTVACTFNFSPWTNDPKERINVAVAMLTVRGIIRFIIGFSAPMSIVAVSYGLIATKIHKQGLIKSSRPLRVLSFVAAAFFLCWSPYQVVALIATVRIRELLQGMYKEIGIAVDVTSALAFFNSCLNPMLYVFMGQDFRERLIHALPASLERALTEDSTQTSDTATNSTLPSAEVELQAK

Vero = assay: viability loss in Vero cells – cell-based, plate reader, cherry-pick samples, cytotoxicity control, dose response (AID 687020); assay type: functional; details: Chlorocebus sabaeus
[17] = viability loss in mouse NIH3T3 cells – cell-based, CellTiter-Glo luminescence, dry powder, cytotoxicity control for PglD inhibitor project, dose response (AID 652044); assay type: functional
Albumin = Albumin (Bos taurus, UniProt P02769); assay: Counterscreen for inhibitors of T-cell receptor (TCR)-CD3 interaction: Fluorescence-based biochemical high throughput dose response assay to identify inhibitors of T-cell receptor (TCR)-CD3 interaction using a TAMRA-labeled BSA probe.; assay type: functional
Chain of Albumin (P02769 whole entry): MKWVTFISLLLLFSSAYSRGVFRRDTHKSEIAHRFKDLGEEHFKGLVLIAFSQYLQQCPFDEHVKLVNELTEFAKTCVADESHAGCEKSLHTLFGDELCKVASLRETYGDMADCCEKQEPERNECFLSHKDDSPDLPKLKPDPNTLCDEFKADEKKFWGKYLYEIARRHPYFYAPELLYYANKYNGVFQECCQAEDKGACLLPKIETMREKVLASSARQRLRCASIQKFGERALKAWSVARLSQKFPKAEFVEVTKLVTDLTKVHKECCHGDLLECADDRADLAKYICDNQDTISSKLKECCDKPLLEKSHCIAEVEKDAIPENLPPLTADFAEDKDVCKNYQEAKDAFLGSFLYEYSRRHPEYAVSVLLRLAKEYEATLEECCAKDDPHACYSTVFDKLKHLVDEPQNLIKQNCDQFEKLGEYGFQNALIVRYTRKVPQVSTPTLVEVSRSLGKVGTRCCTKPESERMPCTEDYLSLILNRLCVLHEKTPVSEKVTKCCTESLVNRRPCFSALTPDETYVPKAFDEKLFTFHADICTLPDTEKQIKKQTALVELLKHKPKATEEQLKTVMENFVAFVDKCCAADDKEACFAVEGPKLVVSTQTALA

[18] = Late stage assay provider results from the probe development effort to identify inhibitors of the Plasmodium falciparum M18 Aspartyl Aminopeptidase (M18AAP): radiolabel-based cell-based dose response assay to identify compounds that inhibit P. falciparum growth in RBCs, Set 2..; assay type: functional
[19] = biological target: Potassium channel subfamily K member 9 (Homo sapiens, UniProt Q9NPC2); assay: KCNK9 flux blockade, concentration-response – cell-based, FluxOR thallium flux, selectivity assay for TASK1 inhibitor project, SAR follow-up (AID 652211); assay type: functional;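 also: potency is for inhibitors of the channel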
[20] = biological target: 1-phosphatidylinositol 4,5-bisphosphate phosphodiesterase gamma-1 (Homo sapiens, UniProt P19174); assay: Counterscreen for inhibitors of phospholipase C isozymes (PLC-B3): Fluorescence-based biochemical high throughput dose response assay to identify inhibitors of phospholipase C isozymes (PLC-gamma1).
Chain of 1-phosphatidylinositol 4,5-bisphosphate phosphodiesterase gamma-1 (P19174 whole entry): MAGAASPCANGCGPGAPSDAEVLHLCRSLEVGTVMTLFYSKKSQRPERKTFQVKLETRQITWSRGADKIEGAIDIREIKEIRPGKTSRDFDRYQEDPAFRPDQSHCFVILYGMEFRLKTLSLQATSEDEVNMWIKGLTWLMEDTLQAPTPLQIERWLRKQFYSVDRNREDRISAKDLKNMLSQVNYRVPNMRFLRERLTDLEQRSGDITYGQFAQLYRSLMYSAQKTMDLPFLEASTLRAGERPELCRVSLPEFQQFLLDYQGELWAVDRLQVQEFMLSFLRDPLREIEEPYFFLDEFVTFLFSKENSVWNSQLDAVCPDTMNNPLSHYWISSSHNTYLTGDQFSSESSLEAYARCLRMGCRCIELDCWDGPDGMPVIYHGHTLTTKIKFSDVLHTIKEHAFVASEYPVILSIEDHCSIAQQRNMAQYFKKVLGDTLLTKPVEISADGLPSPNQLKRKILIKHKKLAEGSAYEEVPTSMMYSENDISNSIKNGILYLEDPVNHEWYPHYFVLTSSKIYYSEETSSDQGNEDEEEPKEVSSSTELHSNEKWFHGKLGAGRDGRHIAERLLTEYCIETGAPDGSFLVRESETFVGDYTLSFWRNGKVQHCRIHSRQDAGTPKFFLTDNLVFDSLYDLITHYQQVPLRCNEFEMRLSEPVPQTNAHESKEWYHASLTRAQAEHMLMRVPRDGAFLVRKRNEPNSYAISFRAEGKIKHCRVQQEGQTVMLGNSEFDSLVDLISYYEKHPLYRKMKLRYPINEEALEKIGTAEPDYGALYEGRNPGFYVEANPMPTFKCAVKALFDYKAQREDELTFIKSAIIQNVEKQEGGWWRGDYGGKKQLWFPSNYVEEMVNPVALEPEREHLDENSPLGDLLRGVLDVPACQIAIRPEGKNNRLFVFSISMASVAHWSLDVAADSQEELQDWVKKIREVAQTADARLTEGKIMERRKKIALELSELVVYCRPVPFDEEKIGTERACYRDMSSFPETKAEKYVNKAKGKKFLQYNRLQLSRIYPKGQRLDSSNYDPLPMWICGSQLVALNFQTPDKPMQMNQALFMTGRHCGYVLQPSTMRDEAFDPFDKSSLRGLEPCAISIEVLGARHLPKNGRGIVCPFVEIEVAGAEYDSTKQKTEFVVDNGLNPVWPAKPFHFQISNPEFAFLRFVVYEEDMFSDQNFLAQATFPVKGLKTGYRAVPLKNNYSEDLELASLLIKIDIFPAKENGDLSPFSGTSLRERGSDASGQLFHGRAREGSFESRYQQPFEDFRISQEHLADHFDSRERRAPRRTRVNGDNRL

[21] = biological target: 1-phosphatidylinositol 4,5-bisphosphate phosphodiesterase beta-3 (Homo sapiens, UniProt Q01970); assay: Fluorescence-based biochemical high throughput dose response assay to identify inhibitors of phospholipase C isozymes (PLC-B3).
Chain of 1-phosphatidylinositol 4,5-bisphosphate phosphodiesterase beta-3 (Q01970 whole entry): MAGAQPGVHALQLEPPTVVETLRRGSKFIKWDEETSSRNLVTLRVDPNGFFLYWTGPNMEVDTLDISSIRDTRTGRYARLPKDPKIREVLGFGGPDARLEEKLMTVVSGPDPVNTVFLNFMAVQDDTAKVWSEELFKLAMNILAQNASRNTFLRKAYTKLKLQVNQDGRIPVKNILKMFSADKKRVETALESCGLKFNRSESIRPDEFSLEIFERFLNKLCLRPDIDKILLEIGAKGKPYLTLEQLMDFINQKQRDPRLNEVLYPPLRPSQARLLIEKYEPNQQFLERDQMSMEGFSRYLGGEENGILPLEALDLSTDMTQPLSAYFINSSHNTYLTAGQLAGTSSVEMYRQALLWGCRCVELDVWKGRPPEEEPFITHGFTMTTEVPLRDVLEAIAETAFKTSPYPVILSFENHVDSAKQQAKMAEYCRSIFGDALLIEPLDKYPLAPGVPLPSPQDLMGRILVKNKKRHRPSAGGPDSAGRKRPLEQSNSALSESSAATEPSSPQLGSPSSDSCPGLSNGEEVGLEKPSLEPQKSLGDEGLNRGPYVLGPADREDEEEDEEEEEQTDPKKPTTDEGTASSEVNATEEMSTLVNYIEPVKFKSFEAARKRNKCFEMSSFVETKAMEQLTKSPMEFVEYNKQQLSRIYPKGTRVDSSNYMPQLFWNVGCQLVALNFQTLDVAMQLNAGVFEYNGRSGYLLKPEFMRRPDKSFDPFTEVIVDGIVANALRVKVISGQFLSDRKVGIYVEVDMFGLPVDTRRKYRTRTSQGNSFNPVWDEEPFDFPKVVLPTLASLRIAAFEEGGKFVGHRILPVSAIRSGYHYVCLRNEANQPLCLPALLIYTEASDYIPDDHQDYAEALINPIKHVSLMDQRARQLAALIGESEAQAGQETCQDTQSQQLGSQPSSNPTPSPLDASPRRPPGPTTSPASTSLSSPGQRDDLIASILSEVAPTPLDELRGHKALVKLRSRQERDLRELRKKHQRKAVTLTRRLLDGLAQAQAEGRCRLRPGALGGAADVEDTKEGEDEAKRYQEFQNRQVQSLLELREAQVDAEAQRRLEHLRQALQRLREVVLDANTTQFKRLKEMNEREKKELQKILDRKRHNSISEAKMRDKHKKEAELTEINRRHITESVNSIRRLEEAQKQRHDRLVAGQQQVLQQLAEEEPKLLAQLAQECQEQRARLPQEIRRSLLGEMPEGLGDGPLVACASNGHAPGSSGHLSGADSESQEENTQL

[22] = inhibitors of EBV LMP1 NF-kappaB signaling – cell-based, luciferase reporter, luminescence, dry powder, set 2, dose response (AID 624376); assay type: functional
[23] = A549 cell viability loss – cherry-picked samples, cytotoxicity control, dose response (AID 1053184); assay type: functional, cell-based
[24] = intracellular Trypanosoma cruzi inhibitors in host cells – cell-based, plate reader, cherry-pick samples, set 3, dose response (AID 651818); assay type: functional;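 also: compounds incubated with infected cells for about four days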
[25] = HEK293 cell viability loss – cherry-picked samples, cytotoxicity control, dose response (AID 1053185); assay type: functional, cell-based
[26] = HepG2 cell viability loss – cherry-picked samples, cytotoxicity control, dose response (AID 1053183); assay type: functional, cell-based
HeLa = assay: viability loss in HeLa cells – cell-based, ATP luminescence, cherry-pick samples, cytotoxicity control, dose response (AID 687004); assay type: functional; details: Homo sapiens
[27] = IC50 of Artemis nuclease activity blockers – biochemical, fluorescence intensity, dose response (AID 720701); assay type: functional;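 also: Artemis endonuclease enzyme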
cells = assay type: functional, cell-based
[28] = biological target: T4, Nuclear receptor subfamily 0 group B member 1 (Homo sapiens, UniProt P51843); assay type: functional, cell-based;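 also: HEK293T cells transfected with SF-1 and DAX-1 plus StAR promoter luciferase reporter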
T4 sequence (P51843 whole entry): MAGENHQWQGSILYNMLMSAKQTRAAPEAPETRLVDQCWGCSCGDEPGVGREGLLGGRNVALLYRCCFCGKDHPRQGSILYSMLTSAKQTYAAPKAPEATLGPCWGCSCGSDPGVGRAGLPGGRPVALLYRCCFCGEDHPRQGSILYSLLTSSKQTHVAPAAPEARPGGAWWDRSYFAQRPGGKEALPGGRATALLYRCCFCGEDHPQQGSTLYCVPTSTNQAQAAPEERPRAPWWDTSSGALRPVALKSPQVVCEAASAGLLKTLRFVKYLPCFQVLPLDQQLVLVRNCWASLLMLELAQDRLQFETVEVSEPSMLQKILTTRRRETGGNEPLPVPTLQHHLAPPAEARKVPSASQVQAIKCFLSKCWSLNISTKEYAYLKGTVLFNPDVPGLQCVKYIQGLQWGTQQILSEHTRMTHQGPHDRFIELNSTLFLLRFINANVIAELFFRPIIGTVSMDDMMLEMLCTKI

Paired box protein Pax-8 = Paired box protein Pax-8 (Homo sapiens, UniProt Q06710); assay: PAX8 transcriptional activity inhibition in RMG-I – RMG-I cells, luciferase, cherry-pick, dose response (AID 687027); assay type: functional, cell-based;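 also: luciferase reporter driven by Pax8 target thyroperoxidase promoter measured by SteadyGlo luminescence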
[29] = biological target: Potassium channel subfamily K member 3 (Homo sapiens, UniProt O14649); assay: inhibition of human KCNK3 channel flux – CHO cells, FluxOR thallium flux, SAR follow-up (AID 652212); assay type: functional
Chain of Potassium channel subfamily K member 3 (O14649 whole entry): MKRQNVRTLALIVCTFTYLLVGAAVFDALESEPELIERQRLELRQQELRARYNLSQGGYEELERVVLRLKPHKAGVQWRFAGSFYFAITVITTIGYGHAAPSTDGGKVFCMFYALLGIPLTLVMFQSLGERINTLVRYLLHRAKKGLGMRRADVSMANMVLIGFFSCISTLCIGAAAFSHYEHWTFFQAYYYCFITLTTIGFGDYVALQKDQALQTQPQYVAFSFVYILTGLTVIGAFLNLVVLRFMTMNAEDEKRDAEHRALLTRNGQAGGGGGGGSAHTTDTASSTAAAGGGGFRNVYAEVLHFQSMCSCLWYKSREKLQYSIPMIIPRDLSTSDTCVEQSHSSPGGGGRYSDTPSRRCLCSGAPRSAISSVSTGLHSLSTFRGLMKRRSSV

## CN(C)C(=O)c1ccc(-c2ccc3c(c2)[C@@H]2[C@@H](CCN2C(=O)c2ccc(F)cc2)[C@H](CO)N3C)cc1
[1]
  AC50: > 52 µM (inactive)

## O=[N+]([O-])c1ccc([N+]2=N[C-](c3ccccc3)CC2c2ccccc2)cc1 (configuration not stated)
[2]
  EC50: 300 nM (active)
[3]
  EC50: 1.1 µM (active)

## COc1cccc(CN2CC(C(=O)NCCc3cn4cccnc4n3)CCC2=O)c1 (configuration not stated)
Kallikrein-7
  EC50: 23.9 µM (inactive)

## Cn1c(-c2sccc2OCc2ccccc2)n[nH]c1=S
Beta-lactamase [4]
  IC50: > 59.6 µM (inactive)
Beta-lactamase [5]
  IC50: > 59.6 µM (inactive)
[6]
  IC50: 2.8 µM (active)
Beta-lactamase [7]
  IC50: > 59.6 µM (inactive)
[8]
  IC50: > 100 µM (inactive)

## Cc1nc2ccccc2c(=O)n1NC(=O)c1ccc(Cl)c([N+](=O)[O-])c1
[9]
  AC50: 16.8 µM (active)

## CN1C(=O)c2cc(NC(=O)c3cccc(F)c3)ccc2OC[C@H]2O[C@H](CC(=O)N3CCc4ccccc4C3)CC[C@@H]21
[10]
  AC50: 31.3 µM (active)
[11]
  AC50: 18.8 µM (active)

## COc1ccc(N/C=C2/C=C(Br)C(=O)OC2=O)c(OC)c1
[12]
  IC50: 3.8 µM (active)
[13]
  IC50: 11.4 µM (inactive)

## O=C1C=C(NCc2ccccc2)C(=O)c2ccccc21
[14]
  AC50: 7.74 µM (active)
[15]
  AC50: > 70 µM (inactive)

## O=C(Nc1ccc(Cl)cn1)c1cc2ccccc2o1
[16]
  EC50: > 67.5 µM (inactive)

## Cc1ccc(Oc2ccc(Oc3ccc(C)cc3)nn2)cc1
Beta-galactosidase
  IC50: > 80 µM (inactive)

## CCOc1ccc(C(=O)C2=C(O)C(=O)N(CC3CCCO3)C2c2ccco2)cc1 (configuration not stated)
fMet-Leu-Phe receptor
  Ki: 32 µM (inactive)

## CCOC(=O)[C@@H]1[C@H]2COc3ccc(Br)cc3[C@@H]2N2C(=O)N(c3ccc(C)cc3)C(=O)[C@]12C
Vero
  AC50: 35.3 µM (active)

## CC(C)NC(=O)N(C)C[C@@H]1Oc2ccc(NC(=O)Cc3cn(C)c4ccccc34)cc2C(=O)N([C@H](C)CO)C[C@H]1C
[17]
  AC50: > 47 µM (inactive)

## O=C(NNC(=O)c1ccc2ccccc2c1O)c1cccs1
Albumin
  IC50: > 94.1 µM (inactive)

## COc1ccc(CCNc2c3ccccc3nc3ccccc23)cc1
[18]
  IC50: 1.1 µM (active)

## COc1cccc(C(=O)Nc2cccc(NC(=O)c3cccc(C)c3)c2)c1
[19]
  IC50: 29.3 µM (active)

## CCCCn1c(=O)n(CC(=O)Nc2ccc(OC)c(Cl)c2)c(=O)c2c1nc(CO)n2CCC
[20]
  IC50: > 123 µM (inactive)
[21]
  IC50: > 123 µM (inactive)

## C[C@H](NC(=O)C[C@H]1C[C@@H]2c3cc(NC(=O)c4cccnc4)ccc3O[C@@H]2[C@@H](CO)O1)c1ccccc1
[22]
  AbsAC35: 164.54 µM

## COc1ccc(S(=O)(=O)Nc2ccc3c(c2)CC(=O)N([C@H](C)CO)C[C@H](C)[C@H](CN(C)Cc2ccc(C(=O)Nc4ccccc4N)cc2)O3)cc1
[23]
  AC50: 29.7 µM (active)
[24]
  AC50: 3.19 µM (active)
[25]
  AC50: 23.6 µM (active)
[26]
  AC50: 24.6 µM (active)

## N#Cc1ccc(-c2ccc3c(c2)[C@H]2[C@H](CCN2C(=O)Cc2ccccc2)[C@@H](CO)N3)cc1
HeLa
  AC50: 28.5 µM (active)

## Cc1cccc(NC(=O)c2sc3nc4c(c(-c5cccs5)c3c2N)CN(C)CC4)c1
[27]
  IC50: > 20 µM (inactive)

## COc1cc(-c2cnc3c(NC=O)cc(-c4ccc(C)cc4)cn23)cc(OC)c1OC
cells
  IC50: > 67.5 µM (inactive)
[28]
  IC50: > 834 nM (active)
Paired box protein Pax-8
  AC50: < 260 nM (active)

## CCOc1ccccc1NC(=O)c1cccc(NC(=O)C2CCOC2)c1 (configuration not stated)
[29]
  IC50: 1.33 µM (active)
